# According to patent US20210161897A1, “EPIDERMAL GROWTH FACTOR RECEPTOR TYROSINE KINASE INHIBITORS FOR THE TREATMENT OF CANCER” (AstraZeneca AB, priority 2019, published 2021):
# Test system: PC9 xenograft tumours
# Assay: PC9 xenograft antitumour efficacy and regrowth
# Format: in vivo, female SCID mice
# Method: PC9 xenograft tumours were established by subcutaneous implantation of 5×10^6 cells per animal, in 100 μl of cell suspension including 50% matrigel, into the dorsal left flank of female SCID mice. All mice were older than 6 weeks at the time of cell implant. Tumor growth was monitored twice weekly by bilateral calliper measurements and tumour volume calculated using elliptical formula (pi/6×width×width×length).
# Mice were randomized into vehicle or treatment groups with approximate mean start size of 0.2 cm3. Randomization for animal studies was based on initial tumour volumes to ensure equal distribution across groups. Mice were dosed daily by oral gavage with vehicle or 25 mg/kg osimertinib or once weekly by intravenous with 25 mg/kg AZD2811 or with the combination of osimertinib and AZD2811. Note that all treatments were stopped on day 28. However, tumour growth was followed for approximately 200 additional days.
structure (smiles),measurement,setting,value
"C=CC(=O)Nc1cc(Nc2nccc(-c3cn(C)c4ccccc34)n2)c(OC)cc1N(C)CCN(C)C [osimertinib, N-(2-{2-dimethylaminoethyl-methylamino}-4-methoxy-5-{[4-(1-methylindol-3-yl)pyrimidin-2-yl]amino}phenyl) prop-2-enamide]",tumour shrinkage during 4-week treatment,"monotherapy, 25 mg/kg, osimertinib daily oral, AZD2811 once weekly intravenous",complete shrinkage
same,time at which tumour regrowth was observed,"osimertinib 25 mg/kg daily oral gavage for 28 days, then treatment stopped",around 80 days
